Laboratory results reported in patent US9321722B2, “Bis-indolic derivatives, their uses in particular as antibacterials” (UNIVERSITE JOSEPH FOURIER, priority 2011, dated 2016).
In brackets after ≈: the same amount, converted by molar mass.

Experiments:
[1] = system: S. aureus ATCC 106414 (VISA); assay: MIC microdilution (Table I-1); format: cell-based, Staphylococcus aureus; conditions: Staphylococcus aureus, read after 18 hours, read-out: MIC
Protocol: (§1) The microdilution method recommended by the Clinical and Laboratory Standard Institute [M07-A8, Vol. 29, N^o 2] was used. The activity of indolic compounds was tested against 29 bacterial strains belonging to 17 different species and 12 different genera (Staphylococcus, Streptococcus, Enterococcus, Listeria, Bacillus, Haemophilus, Escherichia, Klebsiella, Enterobacter, Serratia, Pseudomonas, and Acinetobacter). Bacterial inocula were prepared in Mueller Hinton broth (MH2, bioMerieux, Marcy L'Etoile, France), supplemented with 10% sheep blood for fastidious species (i.e., Streptococcus pneumoniae and Haemophilus influenzae). They were dispensed in 96 well microtiter plates (5×10^5 CFU/ml of final inoculum). Indolic compounds were added to the wells as to obtain two-fold serial concentrations (0.50-128 mg/L of final concentrations). Plates were incubated at 37° C. in ambient air, or at 37° C. in 5% CO2 enriched atmosphere for fastidious species. […] Drug-free cultures served as growth controls. Cultures receiving gentamicin, ciprofloxacin or cefotaxime served as positive controls.

S. aureus ATCC 29213 = assay: MIC microdilution (Table I-1); format: cell-based, Staphylococcus aureus; conditions: Staphylococcus aureus, ATCC29213, read after 18 hours, read-out: MIC
Protocol: as §1

[2] = system: S. aureus ATCC 33592 (MRSA); assay: MIC microdilution (Table I-1); format: cell-based, Staphylococcus aureus; conditions: Staphylococcus aureus, read after 18 hours, read-out: MIC
Protocol: as §1

S. aureus ATCC 6538 = assay: MIC microdilution (Table I-1); format: cell-based, Staphylococcus aureus; conditions: Staphylococcus aureus, ATCC6538, read after 18 hours, read-out: MIC
Protocol: as §1

S. aureus ATCC 9144 = assay: MIC microdilution (Table I-1); format: cell-based, Staphylococcus aureus; conditions: Staphylococcus aureus, ATCC9144, read after 18 hours, read-out: MIC
Protocol: as §1

S. aureus CIP 103428 = assay: MIC microdilution (Table I-1); format: cell-based, Staphylococcus aureus; conditions: Staphylococcus aureus, CIP103428, read after 18 hours, read-out: MIC
Protocol: as §1

[3] = system: S. aureus CIP 65.25 (MRSA); assay: MIC microdilution (Table I-1); format: cell-based, Staphylococcus aureus; conditions: Staphylococcus aureus, read after 18 hours, read-out: MIC
Protocol: as §1

S. aureus CIP 65.6 = assay: MIC microdilution (Table I-1); format: cell-based, Staphylococcus aureus; conditions: Staphylococcus aureus, CIP65, read after 18 hours, read-out: MIC
Protocol: as §1

S. aureus SA-1199B = assay: MIC microdilution (Table I-1); format: cell-based, Staphylococcus aureus; conditions: Staphylococcus aureus, SA1199B, 18 h
Protocol: as §1

[4] = system: S. epidermidis ATCC 12228; assay: MIC microdilution (Table I-1); format: cell-based, Staphylococcus epidermidis; conditions: Staphylococcus epidermidis, ATCC12228, read after 18 hours, read-out: MIC
Protocol: as §1

[5] = system: S. epidermidis CIP 103627; assay: MIC microdilution (Table I-1); format: cell-based, Staphylococcus epidermidis; conditions: Staphylococcus epidermidis, CIP103627, read after 18 hours, read-out: MIC
Protocol: as §1

S. epidermidis CIP 81.55 = assay: MIC microdilution (Table I-1); format: cell-based, Staphylococcus epidermidis; conditions: Staphylococcus epidermidis, CIP81, read after 18 hours, read-out: MIC
Protocol: as §1

[6] = system: Acinetobacter baumanii ATCC 19606; assay: MIC microdilution (Table I-1); format: cell-based; conditions: Acinetobacter baumannii, ATCC19606, read after 18 hours
Protocol: as §1

[7] = system: Bacillus subtilis CIP 5262; assay: MIC microdilution (Table I-1); format: cell-based; conditions: CIP5262, read after 18 hours, read-out: MIC
Protocol: as §1

E. faecalis ATCC 29212 = assay: MIC microdilution (Table I-1); format: cell-based; conditions: Enterococcus faecalis, ATCC29212, read after 18 hours, read-out: MIC
Protocol: as §1

E. faecium CIP 54.32 = assay: MIC microdilution (Table I-1); format: cell-based; conditions: Enterococcus faecium, CIP54, read after 18 hours, read-out: MIC
Protocol: as §1

[8] = system: Enterobacter cloacae ATCC 13047; assay: MIC microdilution (Table I-1); format: cell-based; conditions: ATCC13047, read after 18 hours
Protocol: as §1

[9] = system: Escherichia coli ATCC 25922; assay: MIC microdilution (Table I-1); format: cell-based; conditions: ATCC25922, read after 18 hours
Protocol: as §1

[10] = system: Haemophilus influenzae ATCC 49766; assay: MIC microdilution (Table I-1); format: cell-based; conditions: ATCC49766; Haemophilus influenzae ATCC 49766; read after 18 hours; read-out: MIC
Protocol: as §1

[11] = system: Klebsiella pneumoniae ATCC 35657; assay: MIC microdilution (Table I-1); format: cell-based; conditions: ATCC35657, read after 18 hours, read-out: MIC
Protocol: as §1

[12] = system: Listeria innocua CIP 80.11; assay: MIC microdilution (Table I-1); format: cell-based; conditions: CIP80, read after 18 hours, read-out: MIC
Protocol: as §1

[13] = system: Pseudomonas aeruginosa CIP 5933; assay: MIC microdilution (Table I-1); format: cell-based; conditions: CIP5933, read after 18 hours
Protocol: as §1

[14] = system: S. agalactiae (group B) ATCC 12400; assay: MIC microdilution (Table I-1); format: cell-based; conditions: Streptococcus agalactiae, ATCC12400, read after 18 hours, read-out: MIC
Protocol: as §1

S. aureus ATCC 25923 = assay: MIC microdilution (Table I-1); format: cell-based; conditions: Staphylococcus aureus, ATCC25923, read after 18 hours
Protocol: as §1

S. mitis CIP 103335 = assay: MIC microdilution (Table I-1); format: cell-based; conditions: Streptococcus mitis, CIP103335, read after 18 hours, read-out: MIC
Protocol: as §1

S. pneumoniae ATCC 49619 = assay: MIC microdilution (Table I-1); format: cell-based; conditions: Streptococcus pneumoniae, ATCC49619, read after 18 hours
Protocol: as §1

[15] = system: S. pyogenes (group A) CIP 104226; assay: MIC microdilution (Table I-1); format: cell-based; conditions: Streptococcus pyogenes, CIP104226, read after 18 hours, read-out: MIC
Protocol: as §1

[16] = system: Serratia marcescens CIP 103551; assay: MIC microdilution (Table I-1); format: cell-based; conditions: CIP103551, read after 18 hours
Protocol: as §1

S. pneumoniae ATCC 6303 = assay: MIC microdilution (Table I-1); format: cell-based, Streptococcus pneumoniae; conditions: Streptococcus pneumoniae, ATCC6303, read after 18 hours, read-out: MIC
Protocol: as §1

[17] = system: HCT116 (human colon tumor); assay: In vitro cytotoxicity; format: cell-based; conditions: for inhibition at 10 µM: HCT-116, HCT116, 10^−5 M, read-out: % of cellular growth inhibition; for inhibition at 1 µM: HCT-116, HCT116, 10^−6 M, read-out: % of cellular growth inhibition (converted)
Protocol: (§2) In vitro cytotoxicity was assayed on three cell lines—KB (human mouth carcinoma), MCR5 (human lung fibroblast) and HCT116 (human colon tumor). Results are presented in table III as % of cellular growth inhibition in presence of 10^−5 M and 10^−6 M of the tested bis-indolic derivatives.

[18] = system: KB (human mouth carcinoma); assay: In vitro cytotoxicity; format: cell-based; conditions: KB; for inhibition at 10 µM: 10^−5 M, read-out: % of cellular growth inhibition; for inhibition at 1 µM: 10^−6 M, read-out: % of cellular growth inhibition (converted)
Protocol: as §2

[19] = system: MRC5 (human lung fibroblast); assay: In vitro cytotoxicity; format: cell-based; conditions: for inhibition at 10 µM: MRC5, 10^−5 M, read-out: % of cellular growth inhibition; for inhibition at 1 µM: MRC5, 10^−6 M, read-out: % of cellular growth inhibition (converted)
Protocol: as §2

## CC(C)(C)OC(=O)NCC(NC(=O)C(=O)c1c[nH]c2cc(Br)ccc12)c1c[nH]c2ccccc12 (centres unmarked) [Compound 3, tert-Butyl(2-(2-(6-bromo-1H-indol-3-yl)-2-oxoacetamido)-2-(1H-indol-3-yl)ethyl) carbamate]
[1]
  MIC: 4 mg/L (≈ 7.61 µM)
S. aureus ATCC 29213
  MIC: 2 mg/L (≈ 3.81 µM)
[2]
  MIC: 4 mg/L (≈ 7.61 µM)
S. aureus ATCC 6538
  MIC: 4 mg/L (≈ 7.61 µM)
S. aureus ATCC 9144
  MIC: 4 mg/L (≈ 7.61 µM)
S. aureus CIP 103428
  MIC: 4 mg/L (≈ 7.61 µM)
[3]
  MIC: 4 mg/L (≈ 7.61 µM)
S. aureus CIP 65.6
  MIC: 4 mg/L (≈ 7.61 µM)
S. aureus SA-1199B
  MIC: 4 mg/L (≈ 7.61 µM)
[4]
  MIC: 4 mg/L (≈ 7.61 µM)
[5]
  MIC: > 16 mg/L
S. epidermidis CIP 81.55
  MIC: 8 mg/L (≈ 15.2 µM)
[6]
  MIC: > 128 mg/L
[7]
  MIC: 128 mg/L (≈ 244 µM)
E. faecalis ATCC 29212
  MIC: > 128 mg/L
E. faecium CIP 54.32
  MIC: 32 mg/L (≈ 60.9 µM)
[8]
  MIC: > 128 mg/L
[9]
  MIC: > 128 mg/L
[10]
  MIC: 32 mg/L (≈ 60.9 µM)
[11]
  MIC: > 128 mg/L
[12]
  MIC: > 128 mg/L
[13]
  MIC: > 128 mg/L
[14]
  MIC: 64 mg/L (≈ 122 µM)
S. aureus ATCC 25923
  MIC: 4 mg/L (≈ 7.61 µM)
S. mitis CIP 103335
  MIC: > 128 mg/L
S. pneumoniae ATCC 49619
  MIC: > 128 mg/L
[15]
  MIC: 128 mg/L (≈ 244 µM)
[16]
  MIC: > 128 mg/L
S. pneumoniae ATCC 6303
  MIC: 64 mg/L (≈ 122 µM)
[17]
  inhibition at 10 µM: 97 ± 1%
  inhibition at 1 µM: 0%
[18]
  inhibition at 10 µM: 100 ± 1%
  inhibition at 1 µM: 4%
[19]
  inhibition at 10 µM: 98 ± 1%
  inhibition at 1 µM: 0%

## O=C(C(=O)N1CCOCC1c1c[nH]c2ccc(Br)cc12)c1c[nH]c2ccc(Br)cc12 (centres unmarked) [Compound 6e, 1-(5-Bromo-1H-indol-3-yl)-2-(3-(5-bromo-1H-indol-3-yl)morpholino)ethane-1,2-dione]
[17]
  inhibition at 10 µM: 24 ± 6%
  inhibition at 1 µM: 3%
[18]
  inhibition at 10 µM: 29 ± 6%
  inhibition at 1 µM: 0%
[19]
  inhibition at 10 µM: 0%
  inhibition at 1 µM: 0%
